tested on: morningglory (Ipomoea spp.); assay: Test A pre-/postemergence plant response; assay type: in vivo; details: Preemergence, 125 g ai/ha; 0 to 100 scale, 0 = no effect, 100 = complete control
Method in brief: (§1)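 Injury scores (0, no effect; 100, complete control) come from visual comparison with untreated controls roughly ten days post-treatment. Test chemicals in a surfactant-containing non-phytotoxic solvent were applied as a directed soil spray preemergence and to one- to two-leaf seedlings postemergence.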

Q: For `CCCCc1ncc(C(=O)C2=C(O)CCCC2=O)c(=O)n1-c1ccccc1` [Compound 42], which “Plant response rating, Morningglory” value is on record?
A: The value was 0.

same assay, conditions: Preemergence, 500 g ai/ha; visual injury, 0 to 100 scale (0 no effect, 100 complete control), approx. ten days

Q: With `CCCCc1ncc(C(=O)C2=C(O)CCCC2=O)c(=O)n1-c1ccccc1` [Compound 42] as the compound, how does the “Plant response rating, Morningglory” value read?
A: Its value is 50.

tested on: velvetleaf (Abutilon theophrasti); assay: Test A pre-/postemergence plant response; assay type: in vivo; details: Postemergence, 125 g ai/ha; visual injury, 0 to 100 scale (0 no effect, 100 complete control), approx. ten days
Method in brief: as §1

Q: For `CCCCc1ncc(C(=O)C2=C(O)CCCC2=O)c(=O)n1-c1ccccc1` [Compound 42], which “Velvetleaf plant response rating” value is on record?
A: Its value is 100.

same assay, conditions: Postemergence, 500 g ai/ha; 0 to 100 scale, 0 = no effect, 100 = complete control; approx. ten days

Q: With `CCCCc1ncc(C(=O)C2=C(O)CCCC2=O)c(=O)n1-c1ccccc1` [Compound 42] as the compound, how does the “Plant response rating, Velvetleaf” value read?
A: Its value is 100.

same assay, conditions: Preemergence, 125 g ai/ha; 0 to 100 scale, 0 = no effect, 100 = complete control

Q: How did the “Plant response rating, Velvetleaf” value turn out when `CCCCc1ncc(C(=O)C2=C(O)CCCC2=O)c(=O)n1-c1ccccc1` [Compound 42] was run?
A: Its value is 70.

same assay, conditions: Preemergence, 500 g ai/ha; visual injury, 0 to 100 scale (0 no effect, 100 complete control), approx. ten days

Q: `CCCCc1ncc(C(=O)C2=C(O)CCCC2=O)c(=O)n1-c1ccccc1` [Compound 42] was tested. Which “Plant response rating, Velvetleaf” value did it give?
A: Its value is 100.

tested on: giant foxtail (Setaria faberii); assay: Test A pre-/postemergence plant response; assay type: in vivo; details: Postemergence, 125 g ai/ha; visual injury, 0 to 100 scale (0 no effect, 100 complete control), approx. ten days
Method in brief: as §1

Q: How did the “Foxtail, Giant plant response rating” value turn out when `CCCCc1ncc(C(=O)C2=C(O)CCCC2=O)c(=O)n1-c1ccccc1` [Compound 42] was run?
A: Its value is 40.

same assay, conditions: Postemergence, 500 g ai/ha; 0 to 100 scale, 0 = no effect, 100 = complete control; approx. ten days

Q: Which “Plant response rating, Foxtail, Giant” value does the source give for `CCCCc1ncc(C(=O)C2=C(O)CCCC2=O)c(=O)n1-c1ccccc1` [Compound 42] here?
A: Its value is 70.

same assay, conditions: Preemergence, 125 g ai/ha; 0 to 100 scale, 0 = no effect, 100 = complete control

Q: How did the “Plant response rating, Foxtail, Giant” value turn out when `CCCCc1ncc(C(=O)C2=C(O)CCCC2=O)c(=O)n1-c1ccccc1` [Compound 42] was run?
A: Its value is 10.

same assay, conditions: Preemergence, 500 g ai/ha; visual injury, 0 to 100 scale (0 no effect, 100 complete control), approx. ten days

Q: How did the “Plant response rating, Foxtail, Giant” value turn out when `CCCCc1ncc(C(=O)C2=C(O)CCCC2=O)c(=O)n1-c1ccccc1` [Compound 42] was run?
A: Its value is 40.

tested on: wheat (Triticum aestivum); assay: Test A pre-/postemergence plant response; assay type: in vivo; details: Postemergence, 125 g ai/ha; visual injury, 0 to 100 scale (0 no effect, 100 complete control), approx. ten days
Method in brief: as §1

Q: `CCCCc1ncc(C(=O)C2=C(O)CCCC2=O)c(=O)n1-c1ccccc1` [Compound 42] was tested. Which “Wheat plant response rating” value did it give?
A: The value was 0.

same assay, conditions: Postemergence, 500 g ai/ha; 0 to 100 scale, 0 = no effect, 100 = complete control; approx. ten days

Q: For `CCCCc1ncc(C(=O)C2=C(O)CCCC2=O)c(=O)n1-c1ccccc1` [Compound 42], which “Plant response rating, Wheat” value is on record?
A: Its value is 0.

same assay, conditions: Preemergence, 125 g ai/ha; 0 to 100 scale, 0 = no effect, 100 = complete control

Q: `CCCCc1ncc(C(=O)C2=C(O)CCCC2=O)c(=O)n1-c1ccccc1` [Compound 42] was tested. Which “Plant response rating, Wheat” value did it give?
A: Its value is 0.

same assay, conditions: Preemergence, 500 g ai/ha; visual injury, 0 to 100 scale (0 no effect, 100 complete control), approx. ten days

Q: For `CCCCc1ncc(C(=O)C2=C(O)CCCC2=O)c(=O)n1-c1ccccc1` [Compound 42], which “Plant response rating, Wheat” value is on record?
A: The value was 0.

tested on: barnyardgrass (Echinochloa crus-galli); assay: Test A pre-/postemergence plant response; assay type: in vivo; details: Postemergence, 125 g ai/ha; visual injury, 0 to 100 scale (0 no effect, 100 complete control), approx. ten days
Method in brief: as §1

Q: Which “Barnyardgrass plant response rating” value does the source give for `CCCCc1ncc(C(=O)C2=C(O)CCCC2=O)c(=O)n1-c1ccccc1` [Compound 42] here?
A: The value was 60.

same assay, conditions: Postemergence, 500 g ai/ha; 0 to 100 scale, 0 = no effect, 100 = complete control; approx. ten days

Q: Which “Plant response rating, Barnyardgrass” value does the source give for `CCCCc1ncc(C(=O)C2=C(O)CCCC2=O)c(=O)n1-c1ccccc1` [Compound 42] here?
A: Its value is 90.

same assay, conditions: Preemergence, 125 g ai/ha; 0 to 100 scale, 0 = no effect, 100 = complete control

Q: For `CCCCc1ncc(C(=O)C2=C(O)CCCC2=O)c(=O)n1-c1ccccc1` [Compound 42], which “Plant response rating, Barnyardgrass” value is on record?
A: The value was 0.

same assay, conditions: Preemergence, 500 g ai/ha; visual injury, 0 to 100 scale (0 no effect, 100 complete control), approx. ten days

Q: With `CCCCc1ncc(C(=O)C2=C(O)CCCC2=O)c(=O)n1-c1ccccc1` [Compound 42] as the compound, how does the “Plant response rating, Barnyardgrass” value read?
A: The value was 60.

tested on: winter barley (Hordeum vulgare); assay: Test B postemergence plant response; assay type: in vivo; details: Postemergence, 31 g ai/ha; scale 0 to 100 (0 no effect, 100 complete control)
Method in brief: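 Visual ratings from 0 (no effect) to 100 (complete control), made against controls 13–15 days after treatment, kept in a greenhouse. Compounds were applied postemergence to potted plants at the 1- to 4-leaf stage (2–18 cm).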

Q: `CCCCc1ncc(C(=O)C2=C(O)CCCC2=O)c(=O)n1-c1ccccc1` [Compound 42] was tested. Which “Plant response rating, Barley” value did it give?
A: The value was 0.

same assay, conditions: Postemergence, 62 g ai/ha; scale 0 (no effect) to 100 (complete control); 13 to 15 days

Q: With `CCCCc1ncc(C(=O)C2=C(O)CCCC2=O)c(=O)n1-c1ccccc1` [Compound 42] as the compound, how does the “Plant response rating, Barley” value read?
A: The value was 0.

same assay, conditions: Postemergence, 125 g ai/ha; visual rating after 13 to 15 days, scale 0 (no effect) to 100 (complete control)

Q: For `CCCCc1ncc(C(=O)C2=C(O)CCCC2=O)c(=O)n1-c1ccccc1` [Compound 42], which “Plant response rating, Barley” value is on record?
A: Its value is 0.

same assay, conditions: Postemergence, 250 g ai/ha; scale 0 to 100

Q: Which “Barley plant response rating” value does the source give for `CCCCc1ncc(C(=O)C2=C(O)CCCC2=O)c(=O)n1-c1ccccc1` [Compound 42] here?
A: Its value is 5.

— US8952024B2, “Herbicidal pyrimidone derivatives” (E I du Pont de Nemours and Company, priority 2009, dated 2015)
